The subject of assay [1] is SKOV-3 (adenocarcinoma) ovarian cancer cell line. Description: CyQuant NF cell proliferation assay (DNA content), single agents and paired combinations, SKOV-3. The settings on record: Homo sapiens. Format: cell-based. The source says:
(§1) Ovarian cancer cell lines: ES-2 (clear cell carcinoma) and SKOV-3 (adenocarcinoma), were used to investigate the pharmacodynamic interactions resulting from the paired combination of Radium-224 (^224Ra) with a DNA repair inhibitor exemplified by the poly (ADP-ribose) polymerase inhibitors (PARPi); niraparib and olaparib.

Assay [2] concerns ES-2 (clear cell carcinoma) ovarian cancer cell line. Description: CyQuant NF cell proliferation assay (DNA content), single agents and paired combinations, ES-2. It is filed as cell-based.
From the text: as §1

Setting [3] is: SK-OV-3, 72 h, SKOV-3, Day 3, PARPi in paired combination with 224Ra, read-out: Paired combination IC50.
The mark [4] stands for this setting: SK-OV-3, 72 h, SKOV-3, Day 3, single agent, read-out: Single agent IC50.
Where [5] appears, read: SK-OV-3, 96 h, SKOV-3, Day 4, PARPi in paired combination with 224Ra, read-out: Paired combination IC50.
[6] abbreviates: SK-OV-3, 96 h, SKOV-3, Day 4, single agent, read-out: Single agent IC50.
Setting [7] is: SK-OV-3, 120 h, SKOV-3, Day 5, PARPi in paired combination with 224Ra, read-out: Paired combination IC50.
Where [8] appears, read: SK-OV-3, 120 h, SKOV-3, Day 5, single agent, read-out: Single agent IC50.
The mark [9] stands for this setting: 72 h, ES-2, Day 3, PARPi in paired combination with 224Ra, read-out: Paired combination IC50.
The mark [10] stands for this setting: 72 h, ES-2, Day 3, single agent, read-out: Single agent IC50.
[11] abbreviates: 96 h, ES-2, Day 4, PARPi in paired combination with 224Ra, read-out: Paired combination IC50.
Where [12] appears, read: 96 h, ES-2, Day 4, single agent, read-out: Single agent IC50.
The mark [13] stands for this setting: 120 h, ES-2, Day 5, PARPi in paired combination with 224Ra, read-out: Paired combination IC50.
The mark [14] stands for this setting: 120 h, ES-2, Day 5, single agent, read-out: Single agent IC50.

SMILES strings stand for the structures. Like-named read-outs stand apart in the source and are kept apart here.

A word on the IC50: it is the midpoint of a concentration-inhibition curve. Regarding `NC(=O)c1cccc2cn(-c3ccc([C@@H]4CCCNC4)cc3)nc12` [Niraparib, niraparib], the half-inhibitory concentration (IC50) came out at 2450 nM in assay [1] (setting [3]); 5160 nM in assay [1] (setting [4]); 430 nM in assay [1] (setting [5]); 2830 nM in assay [1] (setting [6]); 220 nM in assay [1] (setting [7]); 2200 nM in assay [1] (setting [8]). Besides, the IC50 in assay [2] (setting [9]) turned out to be 420 nM; in assay [2] (setting [10]) it was 690 nM; in assay [2] (setting [11]), 250 nM; in assay [2] (setting [12]) it was 780 nM; in assay [2] (setting [13]), 360 nM; in assay [2] (setting [14]), 620 nM.
Regarding `O=C(c1cc(Cc2n[nH]c(=O)c3ccccc23)ccc1F)N1CCN(C(=O)C2CC2)CC1` [Olaparib, olaparib], the concentration for half-maximal inhibition (IC50) in assay [1] (setting [3]) came out at 10200 nM; in assay [1] (setting [4]), 21400 nM; in assay [1] (setting [5]), 2670 nM; in assay [1] (setting [6]) it was 23600 nM; in assay [1] (setting [7]) it was 810 nM; in assay [1] (setting [8]), 1830 nM. In addition, the IC50 in assay [2] (setting [9]) is 1430 nM; in assay [2] (setting [10]) it was 3510 nM; in assay [2] (setting [11]), 500 nM; in assay [2] (setting [12]), 1230 nM; in assay [2] (setting [13]) it was 930 nM; in assay [2] (setting [14]), 2210 nM.

The values above are taken from patent publication US20230330280A1, “PREPARATIONS OF RADIUM-224 AND PROGENIES FOR USE IN RADIONUCLIDE THERAPY IN COMBINATION WITH DNA REPAIR INHIBITORS” (priority 2020, published 2023).
